According to ChEMBL document CHEMBL4364276, “Discovery of 4-phenyl-2H-benzo[b][1,4]oxazin-3(4H)-one derivatives as potent and orally active PI3K/mTOR dual inhibitors” (Eur J Med Chem, 2019):
pIC50: −log10 of the molar value.

Tests used:
HeLa = test: Antiproliferative activity against human HeLa cells assessed as reduction in cell viability incubated for 72 hrs by MTT assay; format: functional, cell-based
A549 = test: Antitumor activity against human A549 cells xenografted in BALB/c nude mouse assessed as tumor growth inhibition at 40 mg/kg, ig administered for 30 days measured every 3 days during compound dosing relative to control; format: functional; conditions: A549, po, read-out: TGI
[1] = molecular target: Activated CDC42 kinase 1 (Homo sapiens) (UniProt Q07912); test: Inhibition of human ACK1 at 100 nM using EAIYAAPFAKKK as substrate by [gamma-33P]-ATP assay
[2] = molecular target: Aurora kinase C (Homo sapiens) (UniProt Q9UQB9); test: Inhibition of human Aurora C at 100 nM using [H-LRRASLG] as substrate by [gamma-33P]-ATP assay
[3] = molecular target: Tyrosine-protein kinase receptor UFO (Homo sapiens) (UniProt P30530); test: Inhibition of human AXL at 100 nM using EAIYAAPFAKKK as substrate by [gamma-33P]-ATP assay
Tyrosine-protein kinase receptor UFO (Homo sapiens), sequence (P30530 whole entry): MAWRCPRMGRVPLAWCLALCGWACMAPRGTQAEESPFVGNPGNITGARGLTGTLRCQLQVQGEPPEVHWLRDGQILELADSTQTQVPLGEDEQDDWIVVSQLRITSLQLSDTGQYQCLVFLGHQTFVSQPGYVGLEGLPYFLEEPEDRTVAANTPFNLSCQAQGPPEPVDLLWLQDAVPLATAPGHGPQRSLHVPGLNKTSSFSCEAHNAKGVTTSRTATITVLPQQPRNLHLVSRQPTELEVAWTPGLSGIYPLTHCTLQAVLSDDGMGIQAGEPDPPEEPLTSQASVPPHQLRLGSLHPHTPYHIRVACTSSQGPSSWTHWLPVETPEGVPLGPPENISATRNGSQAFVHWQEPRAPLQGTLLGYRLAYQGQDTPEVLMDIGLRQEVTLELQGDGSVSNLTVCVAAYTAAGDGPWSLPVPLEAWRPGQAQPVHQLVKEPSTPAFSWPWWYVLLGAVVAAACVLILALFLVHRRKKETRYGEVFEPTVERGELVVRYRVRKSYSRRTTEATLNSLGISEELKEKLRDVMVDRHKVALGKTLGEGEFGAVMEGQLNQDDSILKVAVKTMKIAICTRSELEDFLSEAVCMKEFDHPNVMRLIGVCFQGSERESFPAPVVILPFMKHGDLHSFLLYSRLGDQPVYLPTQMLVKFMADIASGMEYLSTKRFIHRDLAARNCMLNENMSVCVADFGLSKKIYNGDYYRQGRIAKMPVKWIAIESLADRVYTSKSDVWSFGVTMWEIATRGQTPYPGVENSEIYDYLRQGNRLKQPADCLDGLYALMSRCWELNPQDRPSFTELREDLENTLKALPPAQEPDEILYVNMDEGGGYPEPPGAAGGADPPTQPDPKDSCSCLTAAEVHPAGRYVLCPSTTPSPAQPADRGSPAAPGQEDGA

[4] = molecular target: CDK2/Cyclin A2 (Homo sapiens) (UniProt P24941+P20248); test: Inhibition of human CDK2/cyclin-A at 100 nM using histone H1 as substrate by [gamma-33P]-ATP assay; format: protein-complex assay
[5] = molecular target: CDK4/Cyclin D3 (Homo sapiens) (UniProt P11802+P30281); test: Inhibition of human CDK4/cyclin-D3 at 100 nM using RB-CTF as substrate by [gamma-33P]-ATP assay; format: protein-complex assay
[6] = molecular target: Casein kinase I isoform gamma-3 (Homo sapiens) (UniProt Q9Y6M4); test: Inhibition of human CK1gamma3 at 100 nM using KRRRAL[pS]VASLPGL as substrate by [gamma-33P]-ATP assay
[7] = molecular target: Casein kinase II subunit alpha' (Homo sapiens) (UniProt P19784); test: Inhibition of human CK2A2 at 100 nM using RRRDDDSDDD as substrate by [gamma-33P]-ATP assay
[8] = molecular target: Dual specificity tyrosine-phosphorylation-regulated kinase 1B (Homo sapiens) (UniProt Q9Y463); test: Inhibition of human DYRK1B at 100 nM using RRRFRPASPLRGPPK as substrate by [gamma-33P]-ATP assay
Dual specificity tyrosine-phosphorylation-regulated kinase 1B (Homo sapiens), sequence (Q9Y463 whole entry, looked up): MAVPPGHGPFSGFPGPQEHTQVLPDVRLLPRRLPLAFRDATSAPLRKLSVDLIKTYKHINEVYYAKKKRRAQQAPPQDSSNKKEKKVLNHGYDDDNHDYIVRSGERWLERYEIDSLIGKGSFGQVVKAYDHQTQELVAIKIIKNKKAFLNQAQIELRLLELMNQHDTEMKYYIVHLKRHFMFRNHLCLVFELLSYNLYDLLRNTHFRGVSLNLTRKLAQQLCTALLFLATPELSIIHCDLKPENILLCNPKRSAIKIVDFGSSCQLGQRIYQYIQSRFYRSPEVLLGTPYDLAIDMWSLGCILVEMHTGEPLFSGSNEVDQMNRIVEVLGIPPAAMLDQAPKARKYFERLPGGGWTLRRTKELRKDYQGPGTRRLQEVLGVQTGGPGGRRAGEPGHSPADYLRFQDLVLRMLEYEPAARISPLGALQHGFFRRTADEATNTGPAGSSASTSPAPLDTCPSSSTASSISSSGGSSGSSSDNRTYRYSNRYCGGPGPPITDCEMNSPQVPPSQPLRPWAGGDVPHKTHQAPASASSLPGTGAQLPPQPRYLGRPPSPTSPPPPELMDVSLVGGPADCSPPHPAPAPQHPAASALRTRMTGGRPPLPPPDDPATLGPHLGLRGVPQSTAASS

[9] = molecular target: Dual specificity tyrosine-phosphorylation-regulated kinase 2 (Homo sapiens) (UniProt Q92630); test: Inhibition of human DYRK2 at 100 nM using RRRFRPASPLRGPPK as substrate by [gamma-33P]-ATP assay
[10] = molecular target: Ephrin type-A receptor 8 (Homo sapiens) (UniProt P29322); test: Inhibition of human EPHA8 at 100 nM using poly[Glu:Tyr] (4:1) as substrate by [gamma-33P]-ATP assay
[11] = molecular target: Tyrosine-protein kinase Fgr (Homo sapiens) (UniProt P09769); test: Inhibition of human FGR at 100 nM using poly[Glu:Tyr] (4:1) as substrate by [gamma-33P]-ATP assay
[12] = molecular target: Rhodopsin kinase GRK1 (Homo sapiens) (UniProt Q15835); test: Inhibition of human GRK1 at 100 nM using casein as substrate by [gamma-33P]-ATP assay
[13] = molecular target: Beta-adrenergic receptor kinase 1 (Homo sapiens) (UniProt P25098); test: Inhibition of human GRK2 at 100 nM using casein as substrate by [gamma-33P]-ATP assay
Beta-adrenergic receptor kinase 1 (Homo sapiens), sequence (P25098 whole entry): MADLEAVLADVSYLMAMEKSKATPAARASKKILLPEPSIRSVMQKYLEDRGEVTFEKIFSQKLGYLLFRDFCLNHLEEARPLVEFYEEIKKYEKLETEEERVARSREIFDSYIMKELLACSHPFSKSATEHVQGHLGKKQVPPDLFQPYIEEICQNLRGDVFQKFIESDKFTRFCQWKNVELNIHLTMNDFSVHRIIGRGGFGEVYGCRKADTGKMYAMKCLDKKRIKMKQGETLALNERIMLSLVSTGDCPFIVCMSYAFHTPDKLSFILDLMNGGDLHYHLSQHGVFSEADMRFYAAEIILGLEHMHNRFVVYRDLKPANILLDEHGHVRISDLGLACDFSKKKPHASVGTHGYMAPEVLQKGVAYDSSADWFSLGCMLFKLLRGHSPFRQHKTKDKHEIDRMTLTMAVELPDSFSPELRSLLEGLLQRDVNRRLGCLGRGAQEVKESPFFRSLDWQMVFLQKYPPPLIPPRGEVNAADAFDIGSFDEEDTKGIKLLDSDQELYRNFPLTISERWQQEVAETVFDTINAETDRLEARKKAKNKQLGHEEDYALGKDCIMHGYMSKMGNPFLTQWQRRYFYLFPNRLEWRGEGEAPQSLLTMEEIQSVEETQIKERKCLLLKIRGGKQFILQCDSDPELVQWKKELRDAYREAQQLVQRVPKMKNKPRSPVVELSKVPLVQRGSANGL

[14] = molecular target: Interleukin-1 receptor-associated kinase 1 (Homo sapiens) (UniProt P51617); test: Inhibition of human IRAK1 at 100 nM using MBP as substrate by [gamma-33P]-ATP assay
[15] = molecular target: LIM domain kinase 1 (Homo sapiens) (UniProt P53667); test: Inhibition of human LIMK1 at 100 nM using cofilin as substrate by [gamma-33P]-ATP assay
[16] = molecular target: Mitogen-activated protein kinase kinase kinase 6 (Homo sapiens) (UniProt O95382); test: Inhibition of human MEKK6 at 100 nM using MBP as substrate by [gamma-33P]-ATP assay
Mitogen-activated protein kinase kinase kinase 6 (Homo sapiens), sequence (O95382 whole entry, the tested form may be a part): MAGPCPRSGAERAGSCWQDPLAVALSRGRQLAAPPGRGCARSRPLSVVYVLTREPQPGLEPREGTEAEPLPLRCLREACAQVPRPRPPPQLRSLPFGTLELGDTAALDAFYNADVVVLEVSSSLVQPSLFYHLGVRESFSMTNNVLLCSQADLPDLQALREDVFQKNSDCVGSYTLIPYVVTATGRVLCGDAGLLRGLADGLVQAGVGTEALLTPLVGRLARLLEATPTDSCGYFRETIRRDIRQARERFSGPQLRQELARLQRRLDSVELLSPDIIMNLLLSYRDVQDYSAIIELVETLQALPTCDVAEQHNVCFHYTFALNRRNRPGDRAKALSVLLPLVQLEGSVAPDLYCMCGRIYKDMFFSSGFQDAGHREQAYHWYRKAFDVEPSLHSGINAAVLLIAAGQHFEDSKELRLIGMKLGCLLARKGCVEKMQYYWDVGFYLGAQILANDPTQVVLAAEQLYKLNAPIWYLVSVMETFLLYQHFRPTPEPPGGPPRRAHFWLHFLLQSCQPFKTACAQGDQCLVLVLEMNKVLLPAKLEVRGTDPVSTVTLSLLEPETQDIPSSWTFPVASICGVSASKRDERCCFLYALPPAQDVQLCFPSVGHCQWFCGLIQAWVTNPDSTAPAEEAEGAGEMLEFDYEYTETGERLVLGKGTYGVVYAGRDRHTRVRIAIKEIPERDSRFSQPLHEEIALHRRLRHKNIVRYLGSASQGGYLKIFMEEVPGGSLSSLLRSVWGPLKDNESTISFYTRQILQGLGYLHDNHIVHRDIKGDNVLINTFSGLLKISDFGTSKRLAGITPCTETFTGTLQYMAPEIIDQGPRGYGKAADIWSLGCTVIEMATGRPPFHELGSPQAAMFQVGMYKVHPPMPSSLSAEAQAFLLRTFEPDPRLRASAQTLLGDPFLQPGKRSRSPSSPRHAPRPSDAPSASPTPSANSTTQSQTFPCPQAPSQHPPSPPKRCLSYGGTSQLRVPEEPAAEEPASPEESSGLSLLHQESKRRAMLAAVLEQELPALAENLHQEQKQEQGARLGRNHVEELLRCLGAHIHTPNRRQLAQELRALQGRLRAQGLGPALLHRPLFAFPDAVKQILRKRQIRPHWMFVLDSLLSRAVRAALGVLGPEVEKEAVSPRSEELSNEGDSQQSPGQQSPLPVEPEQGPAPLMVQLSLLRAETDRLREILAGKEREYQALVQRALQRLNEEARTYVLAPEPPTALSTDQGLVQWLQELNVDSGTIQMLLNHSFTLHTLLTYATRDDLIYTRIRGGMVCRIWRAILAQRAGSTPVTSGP

[17] = molecular target: PAS domain-containing serine/threonine-protein kinase (Homo sapiens) (UniProt Q96RG2); test: Inhibition of human PASK at 100 nM using KKLNRTLSFAEPG as substrate by [gamma-33P]-ATP assay
PAS domain-containing serine/threonine-protein kinase (Homo sapiens), sequence (Q96RG2 whole entry, the tested form may be a part): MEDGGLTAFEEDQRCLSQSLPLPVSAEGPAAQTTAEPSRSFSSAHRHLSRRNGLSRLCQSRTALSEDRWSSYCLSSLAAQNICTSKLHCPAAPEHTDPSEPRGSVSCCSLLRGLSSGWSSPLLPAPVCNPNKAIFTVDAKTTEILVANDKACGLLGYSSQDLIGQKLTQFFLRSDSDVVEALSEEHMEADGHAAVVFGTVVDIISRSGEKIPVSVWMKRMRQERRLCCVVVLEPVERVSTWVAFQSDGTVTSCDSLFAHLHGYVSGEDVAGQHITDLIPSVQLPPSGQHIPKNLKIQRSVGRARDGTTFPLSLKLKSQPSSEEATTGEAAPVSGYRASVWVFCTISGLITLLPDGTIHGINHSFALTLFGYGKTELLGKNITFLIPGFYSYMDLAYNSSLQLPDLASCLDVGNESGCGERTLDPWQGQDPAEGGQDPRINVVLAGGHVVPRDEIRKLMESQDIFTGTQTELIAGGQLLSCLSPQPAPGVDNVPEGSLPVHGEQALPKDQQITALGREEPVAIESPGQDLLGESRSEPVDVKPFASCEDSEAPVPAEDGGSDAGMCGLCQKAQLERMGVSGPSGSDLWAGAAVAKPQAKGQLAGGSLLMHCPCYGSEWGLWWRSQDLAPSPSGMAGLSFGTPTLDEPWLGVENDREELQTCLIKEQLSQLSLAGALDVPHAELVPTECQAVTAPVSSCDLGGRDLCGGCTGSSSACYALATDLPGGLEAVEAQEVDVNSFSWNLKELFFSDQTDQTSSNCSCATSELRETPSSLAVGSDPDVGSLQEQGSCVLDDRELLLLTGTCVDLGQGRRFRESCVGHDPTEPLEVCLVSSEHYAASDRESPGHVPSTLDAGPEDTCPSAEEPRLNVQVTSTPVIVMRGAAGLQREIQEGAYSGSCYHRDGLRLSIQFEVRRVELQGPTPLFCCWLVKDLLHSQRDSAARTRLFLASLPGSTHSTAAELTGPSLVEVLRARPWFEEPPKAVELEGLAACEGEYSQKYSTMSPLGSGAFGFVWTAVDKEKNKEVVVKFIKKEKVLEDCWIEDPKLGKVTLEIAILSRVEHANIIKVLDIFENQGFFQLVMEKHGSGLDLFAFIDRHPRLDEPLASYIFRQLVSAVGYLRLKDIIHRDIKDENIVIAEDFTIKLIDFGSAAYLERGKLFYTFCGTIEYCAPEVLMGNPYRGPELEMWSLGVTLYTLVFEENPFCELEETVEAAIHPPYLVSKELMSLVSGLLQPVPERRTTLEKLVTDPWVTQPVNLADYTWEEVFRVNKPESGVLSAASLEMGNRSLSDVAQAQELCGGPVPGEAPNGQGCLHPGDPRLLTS

[18] = molecular target: Lymphokine-activated killer T-cell-originated protein kinase (Homo sapiens) (UniProt Q96KB5); test: Inhibition of human PBK at 100 nM using MBP as substrate by [gamma-33P]-ATP assay
[19] = molecular target: Platelet-derived growth factor receptor beta (Homo sapiens) (UniProt P09619); test: Inhibition of human PDGFRbeta at 100 nM using poly[Glu:Tyr] (4:1) as substrate by [gamma-33P]-ATP assay
[20] = molecular target: Phosphorylase b kinase gamma catalytic chain, skeletal muscle/heart isoform (Homo sapiens) (UniProt Q16816); test: Inhibition of human PHKgamma1 at 100 nM using MBP as substrate by [gamma-33P]-ATP assay
[21] = molecular target: Serine/threonine-protein kinase pim-1 (Homo sapiens) (UniProt P11309); test: Inhibition of human PIM1 at 100 nM using KKRNRTLTK as substrate by [gamma-33P]-ATP assay
[22] = molecular target: Protein-tyrosine kinase 2-beta (Homo sapiens) (UniProt Q14289); test: Inhibition of human PYK2 at 100 nM using poly[Glu:Tyr] (4:1) as substrate by [gamma-33P]-ATP assay
[23] = molecular target: Receptor-interacting serine/threonine-protein kinase 3 (Homo sapiens) (UniProt Q9Y572); test: Inhibition of human RIPK3 at 100 nM using MBP as substrate by [gamma-33P]-ATP assay
[24] = molecular target: Dual serine/threonine and tyrosine protein kinase (Homo sapiens) (UniProt Q6XUX3); test: Inhibition of human RIPK5 at 100 nM using MBP as substrate by [gamma-33P]-ATP assay
[25] = molecular target: Serine/threonine-protein kinase Sgk1 (Homo sapiens) (UniProt O00141); test: Inhibition of human SGK1 at 100 nM using KGSGSGRPRTSSFAEG as substrate by [gamma-33P]-ATP assay
[26] = molecular target: Serine/threonine-protein kinase SIK1 (Homo sapiens) (UniProt P57059); test: Inhibition of human SIK1 at 100 nM using AMARAASAAALARRR as substrate by [gamma-33P]-ATP assay
[27] = molecular target: Serine/threonine-protein kinase 25 (Homo sapiens) (UniProt O00506); test: Inhibition of human STK25 at 100 nM using MBP as substrate by [gamma-33P]-ATP assay
[28] = molecular target: Tyrosine-protein kinase Tec (Homo sapiens) (UniProt P42680); test: Inhibition of human TEC at 100 nM using poly[Glu:Tyr] (4:1) as substrate by [gamma-33P]-ATP assay
Homo sapiens = organism: Homo sapiens; test: Inhibition of human AMPK (A1/B2/G1) at 100 nM using HMRSAMSGLHLVKRR as substrate by [gamma-33P]-ATP assay

Molecule `COc1ccc(N2C(=O)COc3ccc(-c4cnc(OC)c(NS(=O)(=O)c5ccc(F)cc5)c4)cc32)cc1` has a pIC50 (HeLa) of 5.91, an inhibition in vivo at 40 mg/kg (A549) of 70.2% and an inhibition [1] of 10.4%. For the same molecule, the inhibition [2] was 10.1%, the inhibition [3] was 25.4% and the inhibition [4] was 2.43%. The inhibition [5] was -5.7%, the inhibition [6] was -3.55% and the inhibition [7] was 19.8%. For the same molecule, the inhibition [8] was 18.8%, the inhibition [9] was 3.05% and the inhibition [10] was -2.71%. For the same molecule, the inhibition [11] was 5.02%, the inhibition [12] was -9.8% and the inhibition [13] was 0.16%. For the same molecule, the inhibition [14] was -5.22%, the inhibition [15] was -3.87% and the inhibition [16] was 3.96%. For the same molecule, the inhibition [17] was -2.91%, the inhibition [18] was 0.99% and the inhibition [19] was 0.28%. It also gave an inhibition [20] of 12.3%, an inhibition [21] of 19.4% and an inhibition [22] of 6.22%. It also gave an inhibition [23] of -2.23%, an inhibition [24] of 9.57% and an inhibition [25] of -1.5%. The inhibition [26] was 5.31%, the inhibition [27] was 0.52% and the inhibition [28] was -4.06%. The inhibition (Homo sapiens) was -4.96%.
